SMILES strings stand for the structures. pEC50: −log10 of the molar value. Where only a bound is given, the exact number is not on record here.

Consider 14 compounds from patent publication US10285983B2, “3-(1H-pyrrolo[2,3-B]pyridin-2-yl)-1H-pyrazolo[3,4-B] pyridines and therapeutic uses thereof” (Samumed, LLC, priority 2015, dated 2019).

In experiment [1] the test system is primary human fibroblasts derived from IPF patients (LL29 cells). The experiment is described as follows: Inhibition of fibrotic process, αSMA staining in TGF-β1 treated LL29 fibroblasts. Format: cell-based. Particulars: Fibroblast, 96 h, TGF-β1 20 ng/mL, 4 days; for pEC50: % αSMA positive cells; for inhibition at 10 µM: given for EC50 >10 μM, read-out: percent inhibition at 10 μM. The source says:
Representative compounds were screened using primary human fibroblasts (derived from IPF patients) treated with TGF-β1 to determine their ability to inhibit the fibrotic process.
Primary human fibroblasts derived from IPF patients (LL29 cells) [^1Xiaoqiu Liu, et. al., “Fibrotic Lung Fibroblasts Show Blunted Inhibition by cAMP Due to Deficient cAMP Response Element-Binding Protein Phosphorylation”, Journal of Pharmacology and Experimental Therapeutics (2005), 315(2), 678-687; ^2Watts, K. L., et. al., “RhoA signaling modulates cyclin D1 expression in human lung fibroblasts; implications for idiopathic pulmonary fibrosis”, Respiratory Research (2006), 7(1), 88] were obtained from American Type Culture Collection (ATCC) and expanded in F12 medium supplemented with 15% Fetal Bovine Serum and Penicillin/Streptomycin.
Each compound was dissolved in DMSO as a 10 mM stock and used to prepare compound source plates. Serial dilution (1:2, 11-point dose-response curves from […] to […]) and compound transfer was performed using the ECHO 550 (Labcyte, Sunnyvale, Calif.) into 384-well clear bottom assay plates (Greiner Bio-One) with appropriate DMSO backfill for a final DMSO concentration of 0.1%. LL29 cells are plated at 1,500 cells/well in 80 μL/well F12 medium supplemented with 1% Fetal Bovine Serum. One hour after addition of the cells, TGF-β1 (Peprotech; 20 ng/mL) was added to the plates to induce fibrosis (ref. 1 and 2 above). Wells treated with TGF-β1 and containing DMSO were used as controls. Cells were incubated at 37° C. and 5% CO2 for 4 days. Following incubation for 4 days, SYTOX green nucleic acid stain (Life Technologies [Thermo Fisher Scientific]) was added to the wells at a final concentration of 1 μM and incubated at room temperature for 30 min. Cells were then fixed using 4% formaldehyde (Electron Microscopy Sciences), washed 3 times with PBS followed by blocking and permeabilization using 3% Bovine Serum Albumin (BSA; Sigma) and 0.3% Triton X-100 (Sigma) in PBS. Cells were then stained with antibody specific to α-smooth muscle actin (αSMA; Abcam) (ref. 1 and 2 above) in 3% Bovine Serum Albumin (BSA; Sigma) and 0.3% Triton X-100 (Sigma) in PBS, and incubated overnight at 4° C. Cells were then washed 3 times with PBS, followed by incubation with Alexa Flor-647 conjugated secondary antibody (Life Technologies [Thermo Fisher Scientific]) and DAPI at room temperature for 1 hour. Cells were then washed 3 times with PBS and plates were sealed for imaging. αSMA staining was imaged by excitation at 630 nm and emission at 665 nm and quantified using the Compartmental Analysis program on the CellInsight CX5 (Thermo Scientific). Dead or apoptotic cells were excluded from analysis based on positive SYTOX green staining. % of total cells positive for αSMA were counted in each well and normalized to the average of 11 wells treated with TGF-β1 on the same plate using Dotmatics' Studies Software. The normalized averages (fold change over untreated) of 3 replicate wells for each compound concentration were used to create dose-responses curves and EC50 values were calculated using non-linear regression curve fit in the Dotmatics' Studies Software. For EC50 of >10 μM, the percent inhibition at 10 μM is provided.

In experiment [2] the test system is IL-6 (THP-1 human monocyte cell line). The experiment in a line: IL-6 inhibition in LPS-stimulated THP-1 cells (HTRF). Format: cell-based. The note with it: LPS 500 ng/mL; for pEC50: 22 hours, IL6 HTRF; for inhibition at 10 µM: given for EC50 >10 μM, read-out: percent inhibition at 10 μM. The procedure:
Human monocyte cell line (THP-1 cells; Catalog # TIB-202, ATCC, Manassas, Va.) were cultured in Roswell Park Memorial Institute (RPMI) 1640 Medium (Catalog #21870-100, Buffalo, N.Y.) with 1% L-glutamine, 1% HEPES, 1% Sodium Pyruvate, 2% Sodium Bicarbonate supplemented with 100 units/mL penicillin, 50 μg/mL streptomycin, 2-mercaptoethanol (0.05 mM) [basal medium] and 10% fetal bovine serum (Catalog #16140089, Life Technologies, Carlsbad, Calif.) at 37° C. and 5% CO2.
THP-1 cells were cultured in basal media with 1% FBS for 24 hours before the start of the assay. Each compound was dissolved in DMSO as a 10 mM stock and used to prepare compound source plates. Serial dilution (1:3, 10-point dose-response curves starting from […]) and compound transfer was performed using the ECHO 550 (Labcyte, Sunnyvale, Calif.) into 384-well white low volume assay plates (Greiner Bio-One) with appropriate DMSO backfill for a final DMSO concentration of 0.1%. THP-1 cells were plated at 5000 cells/well in the 384-well plates and incubated at 37° C. for 2 h. 500 ng/mL of LPS was added after 2 hours and cells were incubated for another 22 hours at 37° C. Plates were spun in a centrifuge for 1 minute at 10,000 rpm and a mixture of anti-IL6 XL665, and anti-IL6 Cryptate diluted in reconstitution buffer (Cisbio Inc.) was added to each well. Following incubation for 3 hrs at room temperature, Homogeneous Time-Resolved Fluorescence (HTRF) was measured using the Envision (Perkin Elmer) at 665 nm and […]. The ratio of fluorescence at 665 nm to 620 nm was used as a readout for IL6 quantification. All samples were processed in duplicate. Readings were normalized to DMSO treated cells and normalized activities were utilized for EC50 calculations using the dose-response log (inhibitor) vs. response—variable slope (four parameters) nonlinear regression feature available in GraphPad Prism 5.0 (or Dotmatics). For EC50 of >10 μM, the percent inhibition at 10 μM is provided.

Turning to `CCC(=O)Nc1cncc(-c2cnc3[nH]nc(-c4cc5c(-c6cccc(F)c6)ccnc5[nH]4)c3c2)c1` [Compound 1, N-(5-(3-(4-(3-Fluorophenyl)-1H-pyrrolo[2,3-b]pyridin-2-yl)-1H-pyrazolo [3,4-b]pyridin-5-yl)pyridin-3-yl)propionamide], in experiment [1], the pEC50 (in general, the EC50 on a negative log10 scale, so that one unit is a factor of ten) is less than 5.00 and the inhibition (as a rule, the change of the read-out against control, counted positive when it falls) at 10 µM is 0%. Further, in experiment [2], the pEC50 is less than 5.00 and the inhibition at 10 µM was 23.8%.

For the compound `Fc1cccc(-c2ccnc3[nH]c(-c4n[nH]c5ncc(-c6cccnc6)cc45)cc23)c1` [Compound 4, 3-(4-(3-Fluorophenyl)-1H-pyrrolo[2,3-b]pyridin-2-yl)-5-(pyridin-3-yl)-1H-pyrazolo[3,4-b]pyridine], the pEC50 in experiment [1] was 5.57. In addition, in experiment [2], the pEC50 is less than 5.00 and the inhibition at 10 µM amounted to 22.6%.

In turn, `O=C(Nc1cncc(-c2cnc3[nH]nc(-c4cc5c(-c6cccc(F)c6)ccnc5[nH]4)c3c2)c1)c1ccccc1` [Compound 11, N-(5-(3-(4-(3-Fluorophenyl)-1H-pyrrolo[2,3-b]pyridin-2-yl)-1H-pyrazolo [3,4-b]pyridin-5-yl)pyridin-3-yl)benzamide] gave a pEC50 in experiment [1] of 6.49. In experiment [2], the pEC50 is less than 5.00 and the inhibition at 10 µM is 14.1%.

For `CN(C)Cc1cncc(-c2cnc3[nH]nc(-c4cc5c(-c6cccc(F)c6)ccnc5[nH]4)c3c2)c1` [Compound 13, 1-(5-(3-(4-(3-Fluorophenyl)-1H-pyrrolo[2,3-b]pyridin-2-yl)-1H-pyrazolo [3,4-b]pyridin-5-yl)pyridin-3-yl)-N,N-dimethylmethanamine], the pEC50 in experiment [1] and in experiment [2] was less than 5.00 throughout. Also, the inhibition at 10 µM in experiment [1] amounted to 5.2%; in experiment [2], 27.5%.

In experiment [1], `Fc1cccc(-c2ccnc3[nH]c(-c4n[nH]c5ncc(-c6ccncc6)cc45)cc23)c1` [Compound 18, 3-(4-(3-Fluorophenyl)-1H-pyrrolo[2,3-b]pyridin-2-yl)-5-(pyridin-4-yl)-1H-pyrazolo[3,4-b]pyridine] gave a pEC50 of 5.84. Further, in experiment [2], the pEC50 was less than 5.00 and the inhibition at 10 µM amounted to 37.2%.

For `O=C(Nc1cncc(-c2cnc3[nH]nc(-c4cc5c(-c6cccc(F)c6)ccnc5[nH]4)c3c2)c1)C1CC1` [Compound 20, N-(5-(3-(4-(3-Fluorophenyl)-1H-pyrrolo[2,3-b]pyridin-2-yl)-1H-pyrazolo [3,4-b]pyridin-5-yl)pyridin-3-yl)cyclopropanecarboxamide], the results for the pEC50 in experiment [1] and in experiment [2] were 5.58 and 5.67, respectively.

As to `Fc1cccc(-c2ccnc3[nH]c(-c4n[nH]c5ncc(-c6ccccn6)cc45)cc23)c1` [Compound 28, 3-(4-(3-Fluorophenyl)-1H-pyrrolo[2,3-b]pyridin-2-yl)-5-(pyridin-2-yl)-1H-pyrazolo[3,4-b]pyridine], the pEC50 in experiment [1] and in experiment [2] was less than 5.00 each time. The inhibition at 10 µM in experiment [1] is 52%; in experiment [2] it was 49.5%.

On to `CC(C)CC(=O)Nc1cncc(-c2cnc3[nH]nc(-c4cc5c(-c6ccc(F)cc6)ccnc5[nH]4)c3c2)c1` [Compound 30, N-(5-(3-(4-(4-Fluorophenyl)-1H-pyrrolo[2,3-b]pyridin-2-yl)-1H-pyrazolo [3,4-b]pyridin-5-yl)pyridin-3-yl)-3-methylbutanamide], for which, in experiment [1], the pEC50 was less than 5.00 and the inhibition at 10 µM was determined as 12.8%. Further, in experiment [2], the pEC50 was less than 5.00 and the inhibition at 10 µM amounted to 0%.

In turn, `Cc1ccncc1-c1cnc2[nH]nc(-c3cc4c(-c5ccc(F)cc5)ccnc4[nH]3)c2c1` [Compound 33, 3-(4-(4-Fluorophenyl)-1H-pyrrolo[2,3-b]pyridin-2-yl)-5-(4-methylpyridin-3-yl)-1H-pyrazolo[3,4-b]pyridine] gave a pEC50 in experiment [1] of 5.35. For the same compound, in experiment [2], the pEC50 is less than 5.00 and the inhibition at 10 µM came to 27.7%.

Consider `Fc1ccc(-c2ccnc3[nH]c(-c4n[nH]c5ncc(-c6cncc(CN7CCCC7)c6)cc45)cc23)cc1` [Compound 42, 3-(4-(4-Fluorophenyl)-1H-pyrrolo[2,3-b]pyridin-2-yl)-5-(5-(pyrrolidin-1-ylmethyl)pyridin-3-yl)-1H-pyrazolo[3,4-b]pyridine], for which the pEC50 in experiment [1] was 5.30. In addition, in experiment [2], the pEC50 was less than 5.00 and the inhibition at 10 µM is 36.8%.

With `Fc1ccc(-c2ccnc3[nH]c(-c4n[nH]c5ncc(-c6cncc(CN7CCCCC7)c6)cc45)cc23)cc1` [Compound 43, 3-(4-(4-Fluorophenyl)-1H-pyrrolo[2,3-b]pyridin-2-yl)-5-(5-(piperidin-1-ylmethyl)pyridin-3-yl)-1H-pyrazolo[3,4-b]pyridine], in experiment [1], the pEC50 is less than 5.00 and the inhibition at 10 µM was 0%. In experiment [2], the pEC50 is less than 5.00 and the inhibition at 10 µM is 36.7%.

Regarding `O=C(Nc1cncc(-c2cnc3[nH]nc(-c4cc5c(-c6ccc(F)cc6)ccnc5[nH]4)c3c2)c1)C1CCCCC1` [Compound 51, N-(5-(3-(4-(4-Fluorophenyl)-1H-pyrrolo[2,3-b]pyridin-2-yl)-1H-pyrazolo [3,4-b]pyridin-5-yl)pyridin-3-yl)cyclohexanecarboxamide], in experiment [1], the pEC50 was less than 5.00 and the inhibition at 10 µM amounted to 1.3%. In addition, in experiment [2], the pEC50 is less than 5.00 and the inhibition at 10 µM was 19.4%.

Turning to `Fc1ccc(-c2ccnc3[nH]c(-c4n[nH]c5ncc(-c6cncc(CN7CCC(F)(F)C7)c6)cc45)cc23)cc1` [Compound 54, 5-(5-((3,3-Difluoropyrrolidin-1-yl)methyl)pyridin-3-yl)-3-(4-(4-fluorophenyl)-1H-pyrrolo[2,3-b]pyridin-2-yl)-1H-pyrazolo[3,4-b]pyridine], the pEC50 in experiment [1] was 5.31. Moreover, in experiment [2], the pEC50 is less than 5.00 and the inhibition at 10 µM came out at 32.3%.

As for `Fc1ccc(-c2ccnc3[nH]c(-c4n[nH]c5ncc(-c6cncnc6)cc45)cc23)cc1` [Compound 55, 3-(4-(4-Fluorophenyl)-1H-pyrrolo[2,3-b]pyridin-2-yl)-5-(pyrimidin-5-yl)-1H-pyrazolo[3,4-b]pyridine], in experiment [1], the pEC50 was less than 5.00 and the inhibition at 10 µM stood at 1.8%. Also, in experiment [2], the pEC50 is less than 5.00 and the inhibition at 10 µM is 32.2%.
